The values below come from US7871635B2, “Use of compound that inactivates protein kinase A in a composition containing a cosmetically acceptable medium for lightening the skin” (Societe d'Exploitation de Produits pour les Industries …, priority 2002, dated 2011).

The test system of series [1] is Pigmented human epidermides (phototype IV). Briefly: Chromametric measurement of the epidermal pigmentation in reconstructed human epidermides. It counts as cell-based. The note with it: for L* (% of the control group) / a* (% of the control group) / b* (% of the control group) / b* / a* / L*: topical, 4 days; for b*: control 7.54 ± 0.00 AU; for a*: control 10.23 ± 0.51 AU; for L*: control 41.38 ± 0.69 AU. How it is done:
Pigmented human epidermides (phototype IV) supplied by Skinethic, of 0.63 cm^2, are reconstructed from a coculture of normal human keratinocytes (skin of the forearm, donor, 2nd passage) and from normal human melanocytes (skin of the forearm, donor of phototype IV, 3rd passage). The keratinocyte/melanocyte ratio is 10:1. The cocultures are inoculated onto inert polycarbonate filters. They are cultured for 10 days in the medium supplied by Skinethic, consisting of MCDB 153 medium supplemented with 5 μg/ml of insulin, 1.5 mM of calcium and growth factors. […] The epidermides are cultured in 6-well plates containing 1 ml of the medium described above. […] The application is performed every day for 4 consecutive days. The incubation medium of the reconstructed epidermides is renewed every day for 4 consecutive days. Control epidermides are treated with a formulation free of active principle. Each test is performed in duplicate. Three days after the final topical application, the color of the epidermides is evaluated using a chromameter (Minolta) by measuring the following parameters L*, a* and b*: • L* is the lightness index. A depigmenting product should increase this parameter; • a* represents the color spectrum from […]. A depigmenting product should reduce this parameter; • b*: represents the color spectrum from […]. A depigmenting product should reduce this parameter. The results are expressed in arbitrary units (AU) of each parameter and as a percentage of the control group.

For series [2], the system named is tyrosinase. Briefly: Study of phosphorylated tyrosinase activity (L-tyrosine to dopaquinone, 490 nm). It counts as biochemical, fungi. The conditions noted are these: tyrosinase 66.66 IU/ml, tyrosine 0.2 mM, 10 minutes at 37° C. How it is done:
The tyrosinase used is a commercial product extracted from fungi. […] Sodium hydroxide has no effect on the parameter studied. […] Control cultures are incubated, in the absence of product, and in the presence of tyrosinase and L-tyrosine. Each test is performed in triplicate. After incubation for 10 minutes, the amount of dopaquinone […] formed is measured using a spectrophotometer at 490 nm. The results given in the table below are the means of the three tests performed for each of the products. They are expressed as IU/l of tyrosinase activity and as a percentage of inhibition of the enzymatic activity relative to the control.

In series [3] the test system is Pigmented human epidermides (phototype IV). Briefly: Intracellular melanin content in reconstructed human epidermides. It counts as cell-based. The note with it: topical, 4 days; for Intracellular melanin: control 347 ± 2 μg/ml. The protocol:
Pigmented human epidermides (phototype IV) supplied by Skinethic, of 0.63 cm^2, are reconstructed from a coculture of normal human keratinocytes (skin of the forearm, donor, 2nd passage) and from normal human melanocytes (skin of the forearm, donor of phototype IV, 3rd passage). The keratinocyte/melanocyte ratio is 10:1. The cocultures are inoculated onto inert polycarbonate filters. They are cultured for 10 days in the medium supplied by Skinethic, consisting of MCDB 153 medium supplemented with 5 μg/ml of insulin, 1.5 mM of calcium and growth factors. […] The epidermides are cultured in 6-well plates containing 1 ml of the medium described above. […] The application is performed every day for 4 consecutive days. The incubation medium of the reconstructed epidermides is renewed every day for 4 consecutive days. Control epidermides are treated with a formulation free of active principle. Each test is performed in duplicate. […] Dermatol., 105, 1995, 361-366. The samples are centrifuged for 10 minutes at 10 000 rpm. The extracted intracellular […] measured by spectrophotometry at 500 nm. A melanin calibration range is prepared in parallel. The results are expressed as […] of intracellular melanin and as a percentage of inhibition relative to the control group.

Series [4] relates to Adenylate cyclase. Briefly: Study of adenylate cyclase activation (ATP to cAMP, radioimmunological assay). It counts as biochemical, rat. The note with it: 1 mg/ml; for Enzymatic activity relative to the control (adenylate cyclase): forskolin 10 μM, ATP 0.5 mM, 30 minutes at 30° C. How it is done:
The influence of N-undecylenoylphenylalanine, kojic acid and arbutin on the conversion of ATP into cAMP was compared via a radioimmunological assay.
Adenylate cyclase, which converts ATP into cAMP, is extracted from rat brains via the method described in “Salamon Y., Londos C. and Rodbell M.; Anal. Biochem., 58, 1974, 541-548”; it is then activated with 10 μM of forskolin.
They are each tested separately at a concentration of 1 mg/ml. Sodium hydroxide has no effect on the parameter studied.
The activated enzyme is incubated, in the presence or absence of these products, and in the presence of 0.5 mM of ATP, for 30 minutes at 30° C.
Control cultures are incubated, in the absence of product, and in the presence of ATP. Each test is performed in triplicate.
After incubation for 30 minutes, the amount of cAMP produced is evaluated via a radioimmunological assay performed using a commercial kit; the radioactivity is measured with a scintillation counter (Topcount, Packard), a small radioactivity count reflecting small activation of adenylate cyclase.
The results given in the table below are the means of the three tests performed for each of the products. They are expressed as a percentage of enzymatic activity relative to the control group and as a percentage of inhibition.

Series [5] relates to B16/F1 melanocyte cultures. Briefly: Intracellular protein content (cytotoxicity) in B16/F1 melanocyte cultures. Type of series: cell-based, mouse. How it is done: Mouse melanocytes of the B16/F1 line are inoculated in 96-well culture plates at a density of 1500 cells/well. […] The cells are used at 60% of confluence, i.e. 4 days after inoculation. The MCM medium has the following composition: […] N-Undecylenoylphenylalanine is diluted to 4 mg/ml in decinormal aqueous sodium hydroxide solution. It is tested at 40 μg/ml in the MCM medium. Sodium hydroxide has no effect on the parameters analyzed. […] Given its toxicity, it is not tested at 40 μg/ml. […] Control cultures are incubated, in the absence of product, in the MCM medium. These control cultures are prepared on each culture plate. Each test is performed six times. This assay allows the cytotoxicity of the test products to be evaluated. It is performed in cell lysates prepared as described in the preceding paragraph. The protein assay is performed according to the Coomassie blue method described by: “Bradford M.; Anal. Biochem., 72, 1976, 248-254”. The measurement is performed by spectrophotometry at 640 nm. A bovine serum albumin (BSA) calibration range is prepared in parallel. The results are expressed as mg/ml of proteins and as a percentage of inhibition relative to the control group.

[6] abbreviates: topical application at 1% and 3% (w/v) in an emulsion.
[7] abbreviates: at 40 μg/ml, 72 hours, control 0.45 ± 0.01.
The mark [8] stands for this setting: formulated at 3% (w/v), listed as N-undecylenoylphenylalanine.

On to `OC[C@H]1O[C@@H](Oc2ccc(O)cc2)[C@H](O)[C@@H](O)[C@@H]1O` [Arbutin, arbutin], for which, in series [1] (formulated at 1% (w/v)), the “L* (% of the control group)” value was “+2%”, the “a* (% of the control group)” value is reported as −2%, the “b* (% of the control group)” value was “+1%” and the “b*” value amounted to 7.64 ± 0.19 AU. Besides, in series [1] (formulated at 1% (w/v)), the “a*” value was found to be 10.02 ± 0.13 AU and the “L*” value came to 40.48 ± 0.85 AU. Further, in series [1] (formulated at 3% (w/v)), the “L* (% of the control group)” value was “+1%”, the “a* (% of the control group)” value is −4%, the “b* (% of the control group)” value was “+3%” and the “b*” value is listed as 7.73 ± 0.34 AU. Moreover, in series [1] (formulated at 3% (w/v)), the “a*” value is reported as 9.86 ± 0.18 AU and the “L*” value came to 41.13 ± 0.54 AU. In addition, the “effect on the chromametric parameters L*, a* and b*” value (from here on “effect”) in series [1] (setting [6]) is on record as “no significant effect”. For the same compound, in series [2] (at 0.1 mg/ml), the “Percentage of inhibition of tyrosinase activity with the test products relative to the control” value is 73%. Further, in series [2] (at 1 mg/ml), the “Percentage of inhibition of tyrosinase activity with the test products relative to the control” value is recorded as 80%. In series [3] (formulated at 1% (w/v)), this compound displayed an Intracellular melanin of 242 ± 46 µg/mL. Also, the Intracellular melanin in series [3] (formulated at 3% (w/v)) was determined as 263 ± 16 µg/mL. Further, in series [4], the “Inhibition of adenylate cyclase activity” value is listed as 0% and the “Enzymatic activity relative to the control (adenylate cyclase)” value was determined as 109.7 ± 4.6%. The “Inhibition of adenylate cyclase activity” value in series [4] (listed as arbutin) was “no effect”. The same compound showed a Total proteins in series [5] (setting [7]) of 0.43 ± 0.01 mg/mL.

For `Oc1ccc(O)cc1` [Hydroquinone, hydroquinone], in series [1] (formulated at 0.1% (w/v)), the “L* (% of the control group)” value is listed as −9%, the “a* (% of the control group)” value is on record as 0%, the “b* (% of the control group)” value is reported as “+3%” and the “b*” value amounted to 7.73 ± 0.03 AU. Moreover, in series [1] (formulated at 0.1% (w/v)), the “a*” value is given as 10.19 ± 1.21 AU and the “L*” value is 40.59 ± 2.41 AU. Also, the “effect” value in series [1] (topical application at 0.1% (w/v) in an emulsion) is “no significant effect”. In addition, the “Percentage of inhibition of tyrosinase activity with the test products relative to the control” value in series [2] (at 0.1 mg/ml) worked out at 78%. The “Percentage of inhibition of tyrosinase activity with the test products relative to the control” value in series [2] (at 1 mg/ml) is on record as 80%. In addition, the Intracellular melanin in series [3] (formulated at 0.1% (w/v)) was found to be 317 ± 0 µg/mL. For the same compound, in series [5] (mouse, 72 h, 5 μg/ml), the “Inhibition of protein quantity” value amounted to 38% and the Total proteins came out at 0.28 ± 0.01 mg/mL.

`O=c1cc(CO)occ1O` [Kojic acid, kojic acid]: in series [1] (formulated at 1% (w/v)), the “L* (% of the control group)” value is recorded as “+3%”, the “a* (% of the control group)” value is “+7%”, the “b* (% of the control group)” value is “+3%” and the “b*” value was determined as 7.67 ± 0.03 AU. In series [1] (formulated at 1% (w/v)), the “a*” value is 10.90 ± 0.51 AU and the “L*” value was 40.11 ± 1.41 AU. Besides, in series [1] (formulated at 3% (w/v)), the “L* (% of the control group)” value came to 0%, the “a* (% of the control group)” value is −8%, the “b* (% of the control group)” value is −5% and the “b*” value was found to be 7.13 ± 0.09 AU. In series [1] (formulated at 3% (w/v)), the “a*” value is reported as 9.36 ± 1.02 AU and the “L*” value is listed as 41.69 ± 0.65 AU. For the same compound, the “effect” value in series [1] (setting [6]) is on record as “no significant effect”. This compound also showed an Intracellular melanin in series [3] (formulated at 1% (w/v)) of 273 ± 2 µg/mL. Also, the Intracellular melanin in series [3] (formulated at 3% (w/v)) stood at 234 ± 19 µg/mL. Besides, in series [4], the “Inhibition of adenylate cyclase activity” value came out at 55%. In addition, in series [4] (listed as kojic acid), the “Inhibition of adenylate cyclase activity” value is on record as “moderate effect”. This compound also returned a Total proteins in series [5] (mouse, 72 h, 40 μg/ml) of 0.41 ± 0.02 mg/mL.

On to `C=CCCCCCCCCC(=O)NC(Cc1ccccc1)C(=O)O` (stereo not drawn) [N-Undecylenoylphenylalanine, N-(ω-undecylenoyl)phenylalanine], for which, in series [1] (concentration of 3% (w/v)), the “reduction of the a* color parameter” value was determined as 14% and the “reduction of the b* color parameter” value is on record as 29%. In series [1] (formulated at 1% (w/v)), the “L* (% of the control group)” value came out at 0%, the “a* (% of the control group)” value is on record as −12%, the “b* (% of the control group)” value is reported as −21% and the “b*” value was 5.96 ± 0.42 AU. In addition, in series [1] (formulated at 1% (w/v)), the “a*” value is given as 9.01 ± 1.33 AU and the “L*” value was 41.34 ± 1.15 AU. In addition, in series [1] (formulated at 3% (w/v)), the “L* (% of the control group)” value is recorded as “+9%”, the “a* (% of the control group)” value is given as −14%, the “b* (% of the control group)” value is reported as −29% and the “b*” value is given as 5.38 ± 0.06 AU. For the same compound, in series [1] (formulated at 3% (w/v)), the “a*” value came out at 8.78 ± 0.52 AU and the “L*” value is 45.228 ± 1.49 AU. Further, in series [1] (setting [8]), the “L* (% of the control group)” value was 9%. Further, the “inhibition of the b* color parameter” value in series [1] (topical application at 1% (w/v) in an emulsion) came out at 15%. Further, the “Percentage of inhibition of tyrosinase activity with the test products relative to the control” value in series [2] (at 0.1 mg/ml) turned out to be 80%. The “Percentage of inhibition of tyrosinase activity with the test products relative to the control” value in series [2] (at 1 mg/ml) was found to be 100%. Further, in series [3] (formulated at 1% (w/v)), the Intracellular melanin stood at 264 ± 9 µg/mL. In series [3] (formulated at 3% (w/v)), this compound returned an Inhibition of the amount of intracellular melanin of 24% and an Intracellular melanin of 264 ± 11 µg/mL. For the same compound, in series [3] (setting [8]), the “Inhibition of the amount of intracellular melanin” value turned out to be 24%. In addition, in series [4], the “Inhibition of adenylate cyclase activity” value was 100% and the “Enzymatic activity relative to the control (adenylate cyclase)” value is −16.0 ± 0.5%. Besides, the “Inhibition of adenylate cyclase activity” value in series [4] (listed as N-undecylenoylphenylalanine) was “total inactivation”. In series [5] (at 40 μg/ml, 72 hours), the “Inhibition of protein quantity” value turned out to be 17%. The Total proteins in series [5] (setting [7]) worked out at 0.38 ± 0.01 mg/mL.
